Literature values as cited in patent publication US12201712B2, “Method for dyeing keratinous material, comprising the use of an organosilicon compound, a phosphoric acid ester and a dyeing compound” (Henkel AG & Co. KGaA, priority 2020, dated 2025).

Row | Compound | solubility in water (25° C.) | other results
1 | CCN(Cc1cccc(S(=O)(=O)O)c1)c1ccc(C(=C2C=CC(=[N+](CC)Cc3cccc(S(=O)(=O)O)c3)C=C2)c2ccccc2S(=O)(=O)[O-])cc1 [Acid Blue 9] | – | water solubility (25° C.): greater than 20 wt. %
2 | O=S(=O)(O)c1ccc(N=Nc2c(O)ccc3ccccc23)cc1 [Acid Orange 7, 4-[(2-hydroxy-1-naphthyl)azo]benzene sulphonate] | more than 7 g/L | –
3 | O=C(O)C1=NN(c2ccc(S(=O)(=O)O)cc2)C(=O)C1N=Nc1ccc(S(=O)(=O)O)cc1 (stereo not shown) [Acid Yellow 23, 4,5-dihydro-5-oxo-1-(4-sulfophenyl)-4-((4-sulfophenyl)azo)-1H-pyrazole-3-carboxylic acid] | – | solubility in water (in words) (at 25° C.): readily soluble in water
4 | O=[N+]([O-])c1cc([N+](=O)[O-])c2ccc(S(=O)(=O)O)cc2c1O [Acid Yellow 9, 8-hydroxy-5,7-dinitro-2-naphthalenesulfonic acid] | above 40 g/L | –
